The values that follow come from patent publication US10934276B2, “Positive allosteric modulators of the muscarinic acetylcholine receptor M4” (Vanderbilt University, priority 2016, dated 2021).

The target in one data set is T1, Human M4 (Homo sapiens, UniProt P08173).
T1 construct: expressed in transfected cells; host or cells: CHO-K1 (ATCC), stably expressing hM4 and Gqi5
T1 sequence (P08173 1-479): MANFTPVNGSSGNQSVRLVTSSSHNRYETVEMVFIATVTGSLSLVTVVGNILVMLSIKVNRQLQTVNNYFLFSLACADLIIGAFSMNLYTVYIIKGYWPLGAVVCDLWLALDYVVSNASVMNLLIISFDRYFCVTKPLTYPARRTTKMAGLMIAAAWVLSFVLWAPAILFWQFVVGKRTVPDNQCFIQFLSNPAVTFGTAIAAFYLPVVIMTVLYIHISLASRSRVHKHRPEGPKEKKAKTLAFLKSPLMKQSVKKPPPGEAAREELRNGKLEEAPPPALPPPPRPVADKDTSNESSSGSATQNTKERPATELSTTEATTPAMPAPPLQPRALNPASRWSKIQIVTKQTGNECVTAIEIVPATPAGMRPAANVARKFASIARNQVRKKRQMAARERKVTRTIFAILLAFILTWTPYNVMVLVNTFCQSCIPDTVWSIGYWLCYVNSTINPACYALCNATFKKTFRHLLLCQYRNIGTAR
The data set can be described thus: mAChR M4 cell-based functional assay (calcium flux, potentiation of EC20 acetylcholine response in CHO-K1 hM4-Gqi5 cells). As to conditions: for Emax at 30 µM: CHO-K1, % ACh maximum at 30 μM, human M4; for EC50: positive allosteric modulator mode, EC20 acetylcholine, CHO-K1 cells with human M4 and Gqi5. Here is the method:
Human M4 cDNA, along with the chimeric G protein Gqi5, were transfected into Chinese hamster ovary (CHO—K1) cells purchased from the American Type Culture Collection using Lipofectamine2000. hM4-Gqi5 cells were grown in Ham's F-12 medium containing 10% heat-inactivated fetal bovine serum (FBS), 20 mM HEPES, 50 μg/mL G418 sulfate, and 500 μg/mL Hygromycin B. rM4-Gqi5 cells were grown in DMEM containing 10% heat-inactivated FBS, 20 mM HEPES, 400 μg/mL G418 sulfate, and 500 μg/mL Hygromycin B.
For high throughput measurement of agonist-evoked increases in intracellular calcium, CHO—K1 cells stably expressing muscarinic receptors were plated in growth medium lacking G418 and hygromycin at 15,000 cells/20 μL/well in Greiner 384-well black-walled, tissue culture (TC)-treated, clear-bottom plates (VWR). Cells were incubated overnight at 37° C. and 5% CO2. The next day, cells were washed using an ELX 405 (BioTek) with assay buffer; the final volume was then aspirated to 20 μL. Next, 20 μL of a 2.3 μM stock of Fluo-4/acetoxymethyl ester (Invitrogen, Carlsbad, Calif.), prepared as a 2.3 mM stock in DMSO and mixed in a 1:1 ratio with 10% (w/v) Pluronic F-127 and diluted in assay buffer, was added to the wells and the cell plates were incubated for 50 min at 37° C. and 5% CO2. Dye was removed by washing with the ELX 405 and the final volume was aspirated to 20 μL. Compound master plates were formatted in an 11 point concentration-response curve (CRC) format (1:3 dilutions) in 100% DMSO with a starting concentration of 10 mM using a BRAVO liquid handler (Agilent). Test compound CRCs were then transferred to daughter plates (240 nL) using the Echo acoustic plate reformatter (Labcyte, Sunnyvale, Calif.) and then diluted into assay buffer (40 μL) to a 2× stock using a Thermo Fisher Combi (Thermo Fisher Scientific, Waltham, Mass.).
Calcium flux was measured using the Functional Drug Screening System (FDSS) 6000 or 7000 (Hamamatsu Corporation, Tokyo, Japan) as an increase in the fluorescent static ratio. Compounds were applied to cells (20 μL, 2×) using the automated system of the FDSS at 2-4 seconds into the protocol and the data were collected at 1 Hz. At 144 seconds, 10 μL of an EC20 concentration of the muscarinic receptor agonist acetylcholine was added (5×), followed by the addition of 12 μL of an EC80 concentration of acetylcholine at the 230 second time point (5×). Agonist activity was analyzed as a concentration-dependent increase in calcium mobilization upon compound addition. Positive allosteric modulator activity was analyzed as a concentration-dependent increase in the EC20 acetylcholine response. With the acetylcholine EC20 set as baseline, the test compound EC50 is determined as the concentration that produces an increase above baseline of 50% of the maximum increase in acetylcholine response elicted by the test compound. Antagonist activity was analyzed as a concentration-dependent decrease in the EC80 acetylcholine response. Concentration-response curves were generated using a four-parameter logistical equation in XLFit curve fitting software (IDBS, Bridgewater, N.J.) for Excel (Microsoft, Redmond, Wash.) or Prism (GraphPad Software, Inc., San Diego, Calif.).
Compounds were synthesized as described above. Activity (EC50 and Emax) was determined in the mAChR M4 cell-based functional assay as described above and the data are shown in Table 3. The compound numbers correspond to the compound numbers used in Examples 2-4 and Tables 1 and 2.

The conditions of data set [1]: patients treated with AChE inhibitors such as tacrine; cited from earlier work.

A word on the Emax: it is the maximal effect, on the per cent scale that the assay sets. Usually EC50 stands for the midpoint of the concentration-response curve. Take `Cc1nnc2ccc(C(=O)NC3CN(c4ncc(Cl)cc4F)C3)cc2c1C` [Compound 36, N-[1-(5-chloro-3-fluoro-2-pyridyl)azetidin-3-yl]-3,4-dimethyl-cinnoline-6-carboxamide]: at Human M4, the Emax at 30 µM was found to be 82% and the EC50 stood at 0.65 µM.
For the compound `Cc1cc(C)c2cc(C(=O)NC3CN(c4cc(Cl)ncc4Cl)C3)ccc2n1` [Compound 5, N-[1-(2,5-dichloro-4-pyridyl)azetidin-3-yl]-2,4-dimethyl-quinoline-6-carboxamide], on Human M4, the Emax at 30 µM was found to be 52.5% and the EC50 was 0.19 µM.
As to `Cc1cc(C)c2cc(C(=O)NC3CN(c4ncc(C(F)(F)F)cn4)C3)ccc2n1` [Compound 3, 2,4-dimethyl-N-[1-[5-(trifluoromethyl)pyrimidin-2-yl]azetidin-3-yl]quinoline-6-carboxamide], at Human M4, the maximal effect (Emax) at 30 µM was determined as 44.2% and the EC50 was 6.9 µM.
For the compound `Cc1nnc2ccc(C(=O)NC3CN(c4ncccc4F)C3)cc2c1C` [Compound 34, N-[1-(3-fluoro-2-pyridyl)azetidin-3-yl]-3,4-dimethyl-cinnoline-6-carboxamide], at Human M4, the Emax at 30 µM is 83.4% and the EC50 worked out at 1.22 µM.
With `Nc1c2c(nc3ccccc13)CCCC2` [tacrine], in data set [1], the “patients with elevated liver transaminases (hepatotoxicity)” value is “about 30%”.
Turning to `Cc1nnc2ccc(C(=O)NC3CN(c4cccc(Cl)n4)C3)cc2c1C` [Compound 32, N-[1-(6-chloro-2-pyridyl)azetidin-3-yl]-3,4-dimethyl-cinnoline-6-carboxamide], on Human M4, the Emax at 30 µM came out at 77.2% and the 50% effective concentration (EC50) was 1.32 µM.
With `Cc1cc(C)c2cc(C(=O)NCc3ccncc3)ccc2n1` [Compound 6, 2,4-dimethyl-N-(4-pyridylmethyl)quinoline-6-carboxamide], at Human M4, the Emax at 30 µM amounted to 26.4% and the EC50 is greater than 10 µM.
As to `COc1ccc(CNC(=O)c2ccc3nnc(C)c(C)c3c2)cc1F` [Compound 15, N-[(3-fluoro-4-methoxy-phenyl)methyl]-3,4-dimethyl-cinnoline-6-carboxamide], on Human M4, the Emax at 30 µM turned out to be 72.3% and the EC50 came to 1.89 µM.
Turning to `Cc1nnc2ccc(C(=O)NC3CN(c4cnc(C(F)(F)F)cn4)C3)cc2c1C` [Compound 21, 3,4-dimethyl-N-[1-[5-(trifluoromethyl)pyrazin-2-yl]azetidin-3-yl]cinnoline-6-carboxamide], on Human M4, the Emax at 30 µM is 77.8% and the EC50 is greater than 10 µM.
For the compound `Cc1nnc2ccc(C(=O)NC3CN(c4ncc(OC(C)C)cn4)C3)cc2c1C` [Compound 20, N-[1-(5-isopropoxypyrimidin-2-yl)azetidin-3-yl]-3,4-dimethyl-cinnoline-6-carboxamide], on Human M4, the Emax at 30 µM was determined as 87.8% and the EC50 amounted to 3.2 µM.
As for `Cc1nnc2ccc(C(=O)NC3CC(F)C3)cc2c1C` (centres unmarked) [Compound 40, N-(3-fluorocyclobutyl)-3,4-dimethyl-cinnoline-6-carboxamide], at Human M4, the maximum response (Emax) at 30 µM was 59.3% and the EC50 was greater than 10 µM.
As for `Cc1nnc2ccc(C(=O)NC3CN(c4cc(Cl)ncc4Cl)C3)cc2c1C` [Compound 30, N-[1-(2,5-dichloro-4-pyridyl)azetidin-3-yl]-3,4-dimethyl-cinnoline-6-carboxamide], at Human M4, the Emax at 30 µM turned out to be 91.6% and the EC50 came out at 0.12 µM.
Regarding `Cc1cc(N2CC(NC(=O)c3ccc4nc(C)cc(C)c4c3)C2)cc(OC(F)F)n1` [Compound 8, N-[1-[2-(difluoromethoxy)-6-methyl-4-pyridyl]azetidin-3-yl]-2,4-dimethyl-quinoline-6-carboxamide], on Human M4, the Emax at 30 µM was 41.1% and the EC50 worked out at 1.7 µM.
On the same counts, the results for `Cc1nnc2ccc(C(=O)NC3CN(c4ccc(F)cn4)C3)cc2c1C` [Compound 24, N-[1-(5-fluoro-2-pyridyl)azetidin-3-yl]-3,4-dimethyl-cinnoline-6-carboxamide] are 79.2% and greater than 10 µM.
For `Cc1nnc2ccc(C(=O)NC3CN(c4ncc(C(F)(F)F)cn4)C3)cc2c1C` [Compound 17, 3,4-dimethyl-N-[1-[5-(trifluoromethyl)pyrimidin-2-yl]azetidin-3-yl]cinnoline-6-carboxamide], at Human M4, the maximum response (Emax) at 30 µM was 76.7% and the EC50 was greater than 10 µM.
Regarding `Cc1cc(C)c2cc(C(=O)NC3CN(c4cc(Cl)nc(Cl)c4)C3)ccc2n1` [Compound 9, N-[1-(2,6-dichloro-4-pyridyl)azetidin-3-yl]-2,4-dimethyl-quinoline-6-carboxamide], at Human M4, the Emax at 30 µM amounted to 26.1% and the EC50 is 0.37 µM.
As to `COc1cc(N2CC(NC(=O)c3ccc4nc(C)cc(C)c4c3)C2)c(Cl)cn1` [Compound 2, N-[1-(5-chloro-2-methoxy-4-pyridyl)azetidin-3-yl]-2,4-dimethyl-quinoline-6-carboxamide], at Human M4, the Emax at 30 µM amounted to 39.3% and the concentration giving a half-maximal response (EC50) is 0.54 µM.
For `Cc1nnc2ccc(C(=O)NC3CN(c4cccc(C(F)(F)F)n4)C3)cc2c1C` [Compound 38, 3,4-dimethyl-N-[1-[6-(trifluoromethyl)-2-pyridyl]azetidin-3-yl]cinnoline-6-carboxamide], at Human M4, the maximum response (Emax) at 30 µM turned out to be 64.2% and the EC50 came to 3.36 µM.
